Assay results taken from patent publication US6737383B1, “Herbicidal oxadiazolidines” (priority 1999, dated 2004).

What was measured:
blackgrass = test: Test B pre/postemergence blackgrass; type: in vivo, Alopecurus myosuroides
Method in brief: (§1)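 Test chemicals in a non-phytotoxic solvent mixture with surfactant were sprayed preemergence onto planted seeds and postemergence onto plants 2 to 18 cm tall (1- to 4-leaf stage). After twelve to sixteen days in a greenhouse, injury was visually rated against untreated controls from 0 (no effect) to 10 (complete control).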

bamyardgrass = test: Test B flood test barnyardgrass; type: in vivo, Echinochloa crus-galli
Method in brief: (§2)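 Flood test on plants grown to the 2-leaf stage; treated plants kept in greenhouse twelve to sixteen days, then visually rated against controls on a 0 (no effect) to 10 (complete control) scale.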

smallflower flatsedge = test: Test B flood test smallflower flatsedge; type: in vivo, Cyperus difformis
Method in brief: as §2

rape = test: Test B pre/postemergence rape; type: in vivo, Brassica napus
Method in brief: as §1

pigweed = test: Test B pre/postemergence pigweed; type: in vivo, Amaranthus retroflexus
Method in brief: as §1

duck salad = test: Test B flood test duck salad; type: in vivo, Heteranthera limosa
Method in brief: as §2

soybean = test: Test B pre/postemergence soybean; type: in vivo, Glycine max
Method in brief: as §1

surinam grass = test: Test B pre/postemergence surinam grass; type: in vivo, Brachiaria decumbens
Method in brief: as §1

rice = test: Test B flood test rice; type: in vivo, Oryza sativa
Method in brief: as §2

wild oat = test: Test B pre/postemergence wild oat; type: in vivo, Avena fatua
Method in brief: as §1

purple nutsedge = test: Test B pre/postemergence purple nutsedge; type: in vivo, Cyperus rotundus
Method in brief: as §1

corn = test: Test B pre/postemergence corn; type: in vivo, Zea mays
Method in brief: as §1

giant foxtail = test: Test B pre/postemergence giant foxtail; type: in vivo, Setaria faberii
Method in brief: as §1

velvetleaf = test: Test B pre/postemergence velvetleaf; type: in vivo, Abutilon theophrasti
Method in brief: as §1

sugar beet = test: Test B pre/postemergence sugar beet; type: in vivo, Beta vulgaris
Method in brief: as §1

wheat = test: Test B pre/postemergence wheat; type: in vivo, Triticum aestivum
Method in brief: as §1

morningglory = test: Test B pre/postemergence morningglory; type: in vivo, Ipomoea hederacea
Method in brief: as §1

cocklebur = test: Test B pre/postemergence cocklebur; type: in vivo, Xanthium strumarium
Method in brief: as §1

bedstraw = test: Test B pre/postemergence bedstraw; type: in vivo, Galium aparine
Method in brief: as §1

crabgrass = test: Test B pre/postemergence crabgrass; type: in vivo, Digitaria sanguinalis
Method in brief: as §1

[1] = Postemergence, Rate 125 g/ha, scale 0 to 10, 0 is no effect, 10 is complete control
[2] = Preemergence, Rate 62 g/ha, scale of 0 to 10 where 0 is no effect and 10 is complete control
[3] = Preemergence, Rate 250 g/ha, scale of 0 to 10 where 0 is no effect and 10 is complete control
[4] = Rate 62 g/ha, Postemergence, scale 0 to 10 (0 no effect, 10 complete control)
[5] = Rate 250 g/ha, Postemergence, scale of 0 to 10 where 0 is no effect and 10 is complete control
[6] = Rate 500 g/ha, Postemergence, scale 0 to 10, 0 no effect, 10 complete control
[7] = Rate 62 g/ha, headed Pre-emergence (flood test species), scale 0 to 10 (0 no effect, 10 complete control)
[8] = Rate 125 g/ha, Pre-emergence, flood test species, scale 0 to 10 where 0 is no effect and 10 is complete control
[9] = Rate 250 g/ha, Pre-emergence, flood-test species, scale 0 to 10, 0 is no effect, 10 is complete control
[10] = Rate 500 g/ha, Pre-emergence, flood test species, scale 0 to 10 (0 no effect, 10 complete control)
[11] = Preemergence, Rate 500 g/ha, scale of 0 to 10 where 0 is no effect and 10 is complete control

Cc1ccccc1-n1c(=O)on(C(=O)N(c2ccc(Cl)cc2)C(C)C2CC2)c1=O (stereo not shown) [Compound 330]
Plant response rating, Blackgrass (blackgrass; [1]): 0 | Blackgrass plant response rating (blackgrass; [2]): 0 | Blackgrass plant response rating (0 to 10 scale) (blackgrass; Preemergence, Rate 125 g/ha): 0 | Blackgrass plant response rating (blackgrass; [3]): 0 | Blackgrass plant response rating (blackgrass; [4]): 0 | Plant response rating, Blackgrass (blackgrass; [5]): 0 | Plant response rating, Blackgrass (blackgrass; [6]): 0 | Barnyardgrass plant response rating (bamyardgrass; [7]): 0 | Barnyardgrass plant response rating (bamyardgrass; [8]): 0 | Barnyardgrass plant response rating (bamyardgrass; [9]): 0 | Barnyardgrass plant response rating (bamyardgrass; [10]): 0 | S. Flatsedge plant response rating (smallflower flatsedge; [7]): 0 | S. Flatsedge plant response rating (smallflower flatsedge; [8]): 0 | S. Flatsedge plant response rating (smallflower flatsedge; [9]): 0 | S. Flatsedge plant response rating (smallflower flatsedge; [10]): 0 | Plant response rating, Rape (rape; [1]): 0 | Rape plant response rating (rape; [2]): 0 | Rape plant response rating (0 to 10 scale) (rape; Preemergence, Rate 125 g/ha): 0 | Rape plant response rating (rape; [3]): 0 | Rape plant response rating (rape; [11]): 0 | Rape plant response rating (rape; [4]): 0 | Plant response rating, Rape (rape; [6]): 0 | Plant response rating, Redroot pigweed (pigweed; [1]): 0 | Redroot pigweed plant response rating (pigweed; [2]): 0 | Redroot pigweed plant response rating (0 to 10 scale) (pigweed; Preemergence, Rate 125 g/ha): 0 | Redroot pigweed plant response rating (pigweed; [3]): 0 | Redroot pigweed plant response rating (pigweed; [11]): 0 | Redroot pigweed plant response rating (pigweed; [4]): 0 | Plant response rating, Redroot pigweed (pigweed; [6]): 0 | Ducksalad plant response rating (duck salad; [7]): 0 | Ducksalad plant response rating (duck salad; [8]): 0 | Ducksalad plant response rating (duck salad; [9]): 0 | Ducksalad plant response rating (duck salad; [10]): 0 | Plant response rating, Soybean (soybean; [1]): 1 | Soybean plant response rating (soybean; [2]): 0 | Soybean plant response rating (0 to 10 scale) (soybean; Preemergence, Rate 125 g/ha): 0 | Soybean plant response rating (soybean; [3]): 0 | Soybean plant response rating (soybean; [11]): 0 | Soybean plant response rating (soybean; [4]): 1 | Plant response rating, Soybean (soybean; [6]): 1 | Plant response rating, B. signalgrass (surinam grass; [1]): 0 | B. signalgrass plant response rating (surinam grass; [2]): 0 | B. signalgrass plant response rating (0 to 10 scale, 0 is no effect, 10 is complete control) (surinam grass; Preemergence, Rate 125 g/ha): 0 | B. signalgrass plant response rating (surinam grass; [3]): 0 | B. signalgrass plant response rating (surinam grass; [11]): 0 | B. signalgrass plant response rating (surinam grass; [4]): 0 | Plant response rating, B. signalgrass (surinam grass; [5]): 0 | Plant response rating, B. signalgrass (surinam grass; [6]): 0 | Rice plant response rating (rice; [7]): 0 | Rice plant response rating (rice; [8]): 0 | Rice plant response rating (rice; [9]): 0 | Rice plant response rating (rice; [10]): 0 | Plant response rating, Wild oats (wild oat; [1]): 0 | Wild oats plant response rating (wild oat; [2]): 0 | Wild oats plant response rating (0 to 10 scale) (wild oat; Preemergence, Rate 125 g/ha): 0 | Wild oats plant response rating (wild oat; [3]): 0 | Wild oats plant response rating (wild oat; [11]): 0 | Wild oats plant response rating (wild oat; [4]): 0 | Plant response rating, Wild oats (wild oat; [6]): 0 | Plant response rating, Nutsedge (purple nutsedge; [1]): 0 | Nutsedge plant response rating (purple nutsedge; [2]): 0 | Nutsedge plant response rating (0 to 10 scale) (purple nutsedge; Preemergence, Rate 125 g/ha): 0 | Nutsedge plant response rating (purple nutsedge; [3]): 0 | Nutsedge plant response rating (purple nutsedge; [11]): 0 | Nutsedge plant response rating (purple nutsedge; [4]): 0 | Plant response rating, Nutsedge (purple nutsedge; [6]): 0 | Plant response rating, Corn (corn; [1]): 0 | Corn plant response rating (corn; [2]): 0 | Corn plant response rating (0 to 10 scale) (corn; Preemergence, Rate 125 g/ha): 0 | Corn plant response rating (corn; [3]): 0 | Corn plant response rating (corn; [11]): 0 | Corn plant response rating (corn; [4]): 0 | Plant response rating, Corn (corn; [6]): 0 | Plant response rating, Giant foxtail (giant foxtail; [1]): 0 | Giant foxtail plant response rating (giant foxtail; [2]): 0 | Giant foxtail plant response rating (0 to 10 scale) (giant foxtail; Preemergence, Rate 125 g/ha): 0 | Giant foxtail plant response rating (giant foxtail; [3]): 0 | Giant foxtail plant response rating (giant foxtail; [11]): 0 | Giant foxtail plant response rating (giant foxtail; [4]): 0 | Plant response rating, Giant foxtail (giant foxtail; [6]): 0 | Plant response rating, Velvetleaf (velvetleaf; [1]): 0 | Velvetleaf plant response rating (velvetleaf; [2]): 0 | Velvetleaf plant response rating (0 to 10 scale) (velvetleaf; Preemergence, Rate 125 g/ha): 0 | Velvetleaf plant response rating (velvetleaf; [3]): 0 | Velvetleaf plant response rating (velvetleaf; [11]): 0 | Velvetleaf plant response rating (velvetleaf; [4]): 0 | Plant response rating, Velvetleaf (velvetleaf; [6]): 0 | Plant response rating, Sugarbeets (sugar beet; [1]): 0 | Sugarbeets plant response rating (sugar beet; [2]): 0 | Sugarbeets plant response rating (0 to 10 scale) (sugar beet; Preemergence, Rate 125 g/ha): 0 | Sugarbeets plant response rating (sugar beet; [3]): 0 | Sugarbeets plant response rating (sugar beet; [11]): 0 | Sugarbeets plant response rating (sugar beet; [4]): 0 | Plant response rating, Sugarbeets (sugar beet; [6]): 0 | Plant response rating, Wheat (wheat; [1]): 0 | Wheat plant response rating (wheat; [2]): 0 | Wheat plant response rating (0 to 10 scale) (wheat; Preemergence, Rate 125 g/ha): 0 | Wheat plant response rating (wheat; [3]): 0 | Wheat plant response rating (wheat; [11]): 0 | Wheat plant response rating (wheat; [4]): 0 | Plant response rating, Wheat (wheat; [6]): 0 | Plant response rating, Morningglory (morningglory; [1]): 0 | Morningglory plant response rating (morningglory; [2]): 0 | Morningglory plant response rating (0 to 10 scale) (morningglory; Preemergence, Rate 125 g/ha): 0 | Morningglory plant response rating (morningglory; [3]): 0 | Morningglory plant response rating (morningglory; [11]): 0 | Morningglory plant response rating (morningglory; [4]): 0 | Plant response rating, Morningglory (morningglory; [6]): 4 | Plant response rating, Cocklebur (cocklebur; [1]): 0 | Cocklebur plant response rating (cocklebur; [2]): 0 | Cocklebur plant response rating (0 to 10 scale) (cocklebur; Preemergence, Rate 125 g/ha): 0 | Cocklebur plant response rating (cocklebur; [3]): 0 | Cocklebur plant response rating (cocklebur; [11]): 0 | Cocklebur plant response rating (cocklebur; [4]): 0 | Plant response rating, Cocklebur (cocklebur; [6]): 0 | Plant response rating, Bedstraw (bedstraw; [1]): 0 | Bedstraw plant response rating (0 to 10 scale) (bedstraw; Preemergence, Rate 125 g/ha): 0 | Bedstraw plant response rating (bedstraw; [3]): 0 | Bedstraw plant response rating (bedstraw; [11]): 0 | Bedstraw plant response rating (bedstraw; [4]): 0 | Plant response rating, Crabgrass (crabgrass; [1]): 0 | Crabgrass plant response rating (crabgrass; [2]): 0 | Crabgrass plant response rating (0 to 10 scale) (crabgrass; Preemergence, Rate 125 g/ha): 0 | Crabgrass plant response rating (crabgrass; [3]): 0 | Crabgrass plant response rating (crabgrass; [11]): 0 | Crabgrass plant response rating (crabgrass; [4]): 0 | Plant response rating, Crabgrass (crabgrass; [6]): 0
